# PubChem BioAssay (NCI)
#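 Results reflect a 48-hour exposure of cells in 96-well plates to compound at five concentrations. The concentration for full growth arrest is given as TGI.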
# How the values were obtained:
# Test in all cases: DTP human tumour cell line panel, 48 h
# [1] = tested on: SNB-75 CNS
# [2] = tested on: DLD-1 colon
# [3] = tested on: 786-0 renal
# [4] = tested on: HCT-15 colon
# [5] = tested on: HCC-2998 colon
# [6] = tested on: ACHN renal
# [7] = tested on: A549 NSCLC
# [8] = tested on: M14 melanoma
# [9] = tested on: EKVX NSCLC
# [10] = tested on: NCI-H522 lung
# [11] = tested on: K-562 leukemia
# [12] = tested on: OVCAR-4 ovarian
# [13] = tested on: RPMI-8226 leukemia
# [14] = tested on: SK-MEL-2 melanoma
# [15] = tested on: CCRF-CEM leukemia
# [16] = tested on: DMS 114 small cell lung
# [17] = tested on: OVCAR-8 ovarian
# [18] = tested on: XF 498 CNS
# [19] = tested on: CAKI-1 renal
# [20] = tested on: MALME-3M melanoma
# [21] = tested on: SNB-78 CNS
# [22] = tested on: OVCAR-5 ovarian
# [23] = tested on: LXFL 529 NSCLC
# [24] = tested on: UACC-62 melanoma
# [25] = tested on: RXF-631 renal
# [26] = tested on: UO-31 renal
# [27] = tested on: COLO 205 colon
# [28] = tested on: SF-539 CNS
# [29] = tested on: HT29 colon
# [30] = tested on: SF-268 CNS
# [31] = tested on: SNB-19 CNS
# [32] = tested on: LOX IMVI melanoma
# [33] = tested on: U251 CNS
# [34] = tested on: SK-MEL-28 melanoma
# [35] = tested on: SF-295 CNS
# [36] = tested on: TK-10 renal
# [37] = tested on: KM20L2 colon
# [38] = tested on: SW-620 colon
# [39] = tested on: HL-60(TB) leukemia
# [40] = tested on: KM12 colon
# [41] = tested on: IGROV1 ovarian
# [42] = tested on: SK-OV-3 ovarian
# [43] = tested on: NCI-H23 lung
# [44] = tested on: MOLT-4 leukemia
# [45] = tested on: UACC-257 melanoma
# [46] = tested on: SK-MEL-5 melanoma
# [47] = tested on: SN12C renal
# [48] = tested on: RXF 393 renal
# [49] = tested on: DMS 273 small cell lung
# [50] = tested on: SR leukemia
# [51] = tested on: OVCAR-3 ovarian
# [52] = tested on: NCI-H460 lung
# [53] = tested on: HOP-92 NSCLC
# [54] = tested on: HOP-18 NSCLC
# [55] = tested on: HCT-116 colon
# [56] = tested on: A498 renal
# [57] = tested on: M19-MEL melanoma
# [58] = tested on: HOP-62 NSCLC
# [59] = tested on: NCI-H226 lung
smiles,measurement,setting,value
COc1ccc2n[se]nc2c1,TGI,[1],> 100 µM
same,TGI,[2],> 100 µM
same,TGI,[3],> 100 µM
same,TGI,[4],> 100 µM
same,TGI,[5],> 100 µM
same,TGI,[6],> 100 µM
same,TGI,[7],> 100 µM
same,TGI,[8],> 100 µM
same,TGI,[9],> 100 µM
same,TGI,[10],> 100 µM
same,TGI,[11],> 100 µM
same,TGI,[12],> 100 µM
same,TGI,[13],> 100 µM
same,TGI,[14],> 100 µM
same,TGI,[15],> 100 µM
same,TGI,[16],> 100 µM
same,TGI,[17],> 100 µM
same,TGI,[18],> 100 µM
same,TGI,[19],> 100 µM
same,TGI,[20],> 100 µM
same,TGI,[21],> 100 µM
same,TGI,[22],> 100 µM
same,TGI,[23],> 100 µM
same,TGI,[24],> 100 µM
same,TGI,[25],> 100 µM
same,TGI,[26],> 100 µM
same,TGI,[27],> 100 µM
same,TGI,[28],54.3 µM
same,TGI,[29],> 100 µM
same,TGI,[30],> 100 µM
same,TGI,[31],> 100 µM
same,TGI,[32],> 100 µM
same,TGI,[33],> 100 µM
same,TGI,[34],> 100 µM
same,TGI,[35],> 100 µM
same,TGI,[36],> 100 µM
same,TGI,[37],> 100 µM
same,TGI,[38],> 100 µM
same,TGI,[39],> 100 µM
same,TGI,[40],> 100 µM
same,TGI,[41],> 100 µM
same,TGI,[42],> 100 µM
same,TGI,[43],> 100 µM
same,TGI,[44],> 100 µM
same,TGI,[45],> 100 µM
same,TGI,[46],> 100 µM
same,TGI,[47],> 100 µM
same,TGI,[48],> 100 µM
same,TGI,[49],> 100 µM
CC(=O)OCC1=C(CCC#N)N2C(=O)C(NC(=O)Cc3cccs3)C2S(=O)C1 (stereo unspecified),TGI,[1],> 100 µM
same,TGI,[2],> 100 µM
same,TGI,[50],> 100 µM
same,TGI,[3],> 100 µM
same,TGI,[4],> 100 µM
same,TGI,[5],> 100 µM
same,TGI,[6],> 100 µM
same,TGI,[7],> 100 µM
same,TGI,[8],> 100 µM
same,TGI,[51],> 100 µM
same,TGI,[9],> 100 µM
same,TGI,[10],> 100 µM
same,TGI,[52],> 100 µM
same,TGI,[11],> 100 µM
same,TGI,[12],> 100 µM
same,TGI,[13],> 100 µM
same,TGI,[14],> 100 µM
same,TGI,[53],> 100 µM
same,TGI,[15],> 100 µM
same,TGI,[54],> 100 µM
same,TGI,[16],> 100 µM
same,TGI,[17],> 100 µM
same,TGI,[18],> 100 µM
same,TGI,[19],> 100 µM
same,TGI,[20],> 100 µM
same,TGI,[21],> 100 µM
same,TGI,[22],> 100 µM
same,TGI,[24],> 100 µM
same,TGI,[55],> 100 µM
same,TGI,[26],> 100 µM
same,TGI,[27],> 100 µM
same,TGI,[28],> 100 µM
same,TGI,[29],> 100 µM
same,TGI,[30],> 100 µM
same,TGI,[31],> 100 µM
same,TGI,[56],> 100 µM
same,TGI,[32],> 100 µM
same,TGI,[33],> 100 µM
same,TGI,[34],> 100 µM
same,TGI,[35],> 100 µM
same,TGI,[57],> 100 µM
same,TGI,[58],> 100 µM
same,TGI,[36],> 100 µM
same,TGI,[37],> 100 µM
same,TGI,[38],> 100 µM
same,TGI,[39],> 100 µM
same,TGI,[40],> 100 µM
same,TGI,[41],> 100 µM
same,TGI,[42],> 100 µM
same,TGI,[43],> 100 µM
same,TGI,[44],> 100 µM
same,TGI,[45],> 100 µM
same,TGI,[59],> 100 µM
same,TGI,[46],> 100 µM
same,TGI,[47],> 100 µM
same,TGI,[48],> 100 µM
same,TGI,[49],> 100 µM
